Our source for the IC50 values is EP1377579B1 (Aventis Pharmaceuticals Inc., priority 2000, dated 2002).

Experiment [1] concerns the target cdk4/cyclin D1 (Homo sapiens, UniProt P11802). As to the kind of experiment: Cyclin-dependent kinase assay, cdk4/cyclin D1. The format is biochemical. The settings on record: cyclin D1/cdk4; GST-pRb substrate, 10 µM ATP.
The test system of experiment [2] is PC-3. As to the kind of experiment: In vitro proliferation assay (MTT), PC-3. Format: cell-based, human. Conditions: Homo sapiens, PC-3, MTT assay; value (SD, n) where given; read-out: PC-3 Prostate (IC50 µM). The procedure:
(§1) The proliferation of tumor cells can be measured using a tetrazolium salt-based assay known as the MTT (3-[4,5-Dimethylthiazol-2-yl]-2,5-diphenyltetrazolium bromide) assay. […] For the assay, the cell lines are plated onto 96 well plates at 1000 to 2500 cells/well (depending on the properties of the individual cell lines), left to attach and recover overnight. […] After 3 days, the cells are incubated with MTT dye (3-[4,5-Dimethylthiazol-2-yl]-2,5-diphenyltetrazolium bromide, Sigma # M5655, 10 mg/ml in Hank's Buffered Saline) to estimate the amount of live cells remaining vs. concentration for the test compounds. […] The MTT and culture medium is then removed from the cultures and 200 µl of DMSO is added to solubilize the dye from the cell layer. The absorbance at 570 nm is determined for each culture using a Spectramax plate reader (Molecular Devices).
(§2) IC50s were determined from the raw data from either the MTT or SRB assays.
(§3) All of the cell lines were obtained from American Type Tissue Collection, with the ATCC accession number in parentheticals. MCF-7 and MDA-MB-231 cells were grown in improved minimum essential medium (Biofluids) without phenol red, supplemented with 5 % fetal bovine serum, 0.01 mg/ml gentamicin and 3 mM L-glutamine.
Background: Tetrazolium dyes change colour on reduction, which living cells bring about.

Experiment [3] concerns MDA-MB-435. Description: In vitro proliferation assay (MTT), MDA-MB-435. The format is cell-based, human. Conditions: Homo sapiens, MDA-MB-435, MTT assay; value (SD, n) where given; read-out: MB-435 Breast (IC50 µM). The protocol: as §1, §2, §3
The target of experiment [4] is cdk2/cyclin E (Homo sapiens, UniProt P24941). As to the kind of experiment: Cyclin-dependent kinase assay, cdk2/cyclin E. Conditions: CDK2 IC50, nM, GST-pRb substrate, 10 µM ATP.
Experiment [5] deals with cdk1/cyclin B (Homo sapiens, UniProt P06493). Description: Cyclin-dependent kinase assay, cdk1/cyclin B. The settings on record: CDK1 IC50, nM, Histone H1, 10 µM ATP.

Where a name gives a salt, the structure may show the parent alone.

cdk1/cyclin B, sequence (P06493 whole entry): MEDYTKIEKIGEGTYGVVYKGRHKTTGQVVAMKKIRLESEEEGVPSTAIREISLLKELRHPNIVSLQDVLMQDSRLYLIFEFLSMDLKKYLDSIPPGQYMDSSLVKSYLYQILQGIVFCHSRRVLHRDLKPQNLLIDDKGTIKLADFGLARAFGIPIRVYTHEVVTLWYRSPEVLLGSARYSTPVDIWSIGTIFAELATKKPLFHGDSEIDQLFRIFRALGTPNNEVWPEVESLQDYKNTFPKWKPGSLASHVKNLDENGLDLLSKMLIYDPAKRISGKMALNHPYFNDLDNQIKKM
cdk1/cyclin B, sequence (P14635 whole entry partner): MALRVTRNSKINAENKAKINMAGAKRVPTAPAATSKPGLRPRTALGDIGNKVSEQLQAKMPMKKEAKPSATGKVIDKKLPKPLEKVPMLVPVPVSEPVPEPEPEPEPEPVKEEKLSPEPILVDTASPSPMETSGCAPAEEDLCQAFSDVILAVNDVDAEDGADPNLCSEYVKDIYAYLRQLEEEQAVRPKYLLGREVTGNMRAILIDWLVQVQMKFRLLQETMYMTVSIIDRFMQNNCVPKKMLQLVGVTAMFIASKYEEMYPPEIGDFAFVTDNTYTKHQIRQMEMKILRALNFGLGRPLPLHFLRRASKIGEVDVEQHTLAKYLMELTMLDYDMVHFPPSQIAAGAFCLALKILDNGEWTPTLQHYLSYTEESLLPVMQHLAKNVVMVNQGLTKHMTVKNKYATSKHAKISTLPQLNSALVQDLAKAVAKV
cdk4/cyclin D1, sequence (P11802 whole entry): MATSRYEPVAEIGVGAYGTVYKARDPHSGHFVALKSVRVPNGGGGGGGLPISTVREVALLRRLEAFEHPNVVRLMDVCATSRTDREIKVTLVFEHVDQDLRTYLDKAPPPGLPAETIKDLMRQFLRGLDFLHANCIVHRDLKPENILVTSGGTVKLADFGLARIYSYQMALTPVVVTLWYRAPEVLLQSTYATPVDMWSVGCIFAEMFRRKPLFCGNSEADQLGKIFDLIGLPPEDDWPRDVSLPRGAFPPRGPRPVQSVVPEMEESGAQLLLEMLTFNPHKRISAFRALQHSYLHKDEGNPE
cdk4/cyclin D1, sequence (P24385 whole entry partner): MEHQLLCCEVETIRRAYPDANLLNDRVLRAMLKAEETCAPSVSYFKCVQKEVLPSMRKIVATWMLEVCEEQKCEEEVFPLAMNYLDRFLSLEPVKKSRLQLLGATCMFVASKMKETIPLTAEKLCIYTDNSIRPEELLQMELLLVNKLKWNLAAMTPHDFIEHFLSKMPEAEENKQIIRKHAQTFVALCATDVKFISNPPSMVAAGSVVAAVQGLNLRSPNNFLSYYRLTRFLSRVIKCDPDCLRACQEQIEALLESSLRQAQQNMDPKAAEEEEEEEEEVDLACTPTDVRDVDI

One may read the IC50 as the point on the concentration scale where inhibition reaches its midpoint. On to `N[C@H]1CC[C@H](Nc2nc(NC3CCN(C(=O)c4c(Cl)cccc4Cl)CC3)c3ncn(C4CCCC4)c3n2)CC1` [compound 14, trans-1-{4-[2-(4-Amino-cyclohexylamino)-9-cyclopentyl-9H-purin-6-ylamino]-piperidin-1-yl}-1-(2,6-dichloro-phenyl)-methanone], for which the IC50 in experiment [1] turned out to be 17 nM; in experiment [2] it was 2.99 µM; in experiment [3], 2.98 µM; in experiment [4] it was 514 nM; in experiment [5], 164 nM.

Consider `N[C@H]1CC[C@H](Nc2nc(NC3CCN(C(=O)c4ccc(Cl)c(Cl)c4)CC3)c3ncn(C4CCCC4)c3n2)CC1` [compound 15, trans-1-{4-[2-(4-Amino-cyclohexylamino)-9-cyclopentyl-9H-purin-6-ylamino]-piperidin-1-yl}-1-(3,4-dichloro-phenyl)-methanone], for which the IC50 came to 732 nM in experiment [1]; 0.74 µM in experiment [2]; 0.67 µM in experiment [3]; 291 nM in experiment [4]; 61 nM in experiment [5].

In the case of `COc1cc(C(=O)N2CCC(Nc3nc(N[C@H]4CC[C@H](N)CC4)nc4c3ncn4C3CCCC3)CC2)cc(OC)c1OC` [compound 16, trans-1-{4-[2-(4-Amino-cyclohexylamino)-9-cyclopentyl-9H-purin-6-ylamino]-piperidin-1-yl}-1-(3,4,5-trimethoxy-phenyl)-methanone], the IC50 in experiment [1] amounted to 372 nM; in experiment [2], 7.91 µM; in experiment [3], 8.52 µM; in experiment [4], 83 nM; in experiment [5], 43 nM.

Turning to `COc1cc(OC)cc(C(=O)N2CCC(Nc3nc(N[C@H]4CC[C@H](N)CC4)nc4c3ncn4C3CCCC3)CC2)c1` [compound 17, trans-1-{4-[2-(4-Amino-cyclohexylamino)-9-cyclopentyl-9H-purin-6-ylamino]-piperidin-1-yl}-1-(3,5-dimethoxy-phenyl)-methanone], the IC50 in experiment [1] is 467 nM; in experiment [2], 1.82 µM; in experiment [3], 2.22 µM; in experiment [4], 189 nM; in experiment [5], 89 nM.

Consider `CCCCOc1ccc(C(=O)N2CCC(Nc3nc(N[C@H]4CC[C@H](N)CC4)nc4c3ncn4C3CCCC3)CC2)cc1` [compound 18, trans-1-{4-[2-(4-Amino-cyclohexylamino)-9-cyclopentyl-9H-purin-6-ylamino]-piperidin-1-yl}-1-(4-butoxy-phenyl)-methanone], for which the IC50 in experiment [1] was 1490 nM; in experiment [2], 3.43 µM; in experiment [3], 2.76 µM; in experiment [4] it was 336 nM; in experiment [5], 506 nM.

For the molecule `CCCCCCCOc1ccc(C(=O)N2CCC(Nc3nc(N[C@H]4CC[C@H](N)CC4)nc4c3ncn4C3CCCC3)CC2)cc1` [compound 19, trans-1-{4-[2-(4-Amino-cyclohexylamino)-9-cyclopentyl-9H-purin-6-ylamino]-piperidin-1-yl}-1-(4-heptoxy-phenyl)-methanone], the IC50 in experiment [1] worked out at 883 nM; in experiment [2], 0.96 µM; in experiment [3] it was 0.58 µM; in experiment [4], 567 nM; in experiment [5], 62 nM.

Consider `CC(C)(C)c1ccc(C(=O)N2CCC(Nc3nc(N[C@H]4CC[C@H](N)CC4)nc4c3ncn4C3CCCC3)CC2)cc1` [compound 20, trans-1-{4-[2-(4-Amino-cyclohexylamino)-9-cyclopentyl-9H-purin-6-ylamino]-piperidin-1-yl}-1-(4-tert-butyl-phenyl)-methanone], for which the IC50 in experiment [1] is 682 nM; in experiment [2], 1.96 µM; in experiment [3] it was 2.25 µM; in experiment [4], 352 nM; in experiment [5] it was 161 nM.

For the molecule `CCCCCc1ccc(C(=O)N2CCC(Nc3nc(N[C@H]4CC[C@H](N)CC4)nc4c3ncn4C3CCCC3)CC2)cc1` [compound 22, trans-1-{4-[2-(4-Amino-cyclohexylamino)-9-cyclopentyl-9H-purin-6-ylamino]-piperidin-1-yl}-1-(4-pentyl-phenyl)-methanone], the IC50 in experiment [1] came out at 383 nM; in experiment [2], 1.86 µM; in experiment [3] it was 1.61 µM; in experiment [4], 571 nM; in experiment [5], 182 nM.

Regarding `CCCCCCc1ccc(C(=O)N2CCC(Nc3nc(N[C@H]4CC[C@H](N)CC4)nc4c3ncn4C3CCCC3)CC2)cc1` [compound 23, trans-1-{4-[2-(4-Amino-cyclohexylamino)-9-cyclopentyl-9H-purin-6-ylamino]-piperidin-1-yl}-1-(4-hexyl-phenyl)-methanone], the IC50 stood at 629 nM in experiment [1]; 2.27 µM in experiment [2]; 1.08 µM in experiment [3]; 596 nM in experiment [4]; 300 nM in experiment [5].

For the molecule `N#Cc1ccc(C(=O)N2CCC(Nc3nc(N[C@H]4CC[C@H](N)CC4)nc4c3ncn4C3CCCC3)CC2)cc1` [compound 25, trans-1-{4-[2-(4-Amino-cyclohexylamino)-9-cyclopentyl-9H-purin-6-ylamino]-piperidin-1-yl}-1-(4-cyano-phenyl)-methanone], the IC50 in experiment [1] is 629 nM; in experiment [2] it was 2.72 µM; in experiment [3], 3.76 µM; in experiment [4], 79 nM; in experiment [5], 56 nM.

In the case of `N[C@H]1CC[C@H](Nc2nc(NC3CCN(C(=O)c4cccc([N+](=O)[O-])c4)CC3)c3ncn(C4CCCC4)c3n2)CC1` [compound 26, trans-1-{4-[2-(4-Amino-cyclohexylamino)-9-cyclopentyl-9H-purin-6-ylamino]-piperidin-1-yl}-1-(3-nitro-phenyl)-methanone], the IC50 in experiment [1] was determined as 564 nM; in experiment [2] it was 1.67 µM; in experiment [3], 2.18 µM; in experiment [4] it was 78 nM; in experiment [5], 31 nM.

With `CCOC(=O)CC(=O)N1CCC(Nc2nc(N[C@H]3CC[C@H](N)CC3)nc3c2ncn3C2CCCC2)CC1` [compound 29, trans-3-{4-[2-(4-Amino-cyclohexylamino)-9-cyclopentyl-9H-purin-6-ylamino]-piperidin-1-yl}-3-oxo-propionic acid ethyl ester dihydrochloride], the IC50 is 632 nM in experiment [1]; 2.4 µM in experiment [2]; 3 µM in experiment [3]; 56 nM in experiment [4]; 27 nM in experiment [5].

Take `COc1ccc(CC(=O)N2CCC(Nc3nc(N[C@H]4CC[C@H](N)CC4)nc4c3ncn4C3CCCC3)CC2)cc1OC` [compound 32, trans 1-{4-[2-(4-Amino-cyclohexylamino)-9-cyclopentyl-9H-purin-6-ylamino]-piperidin-1-yl}-2-(3,4-dimethoxy-phenyl)-ethanone dihydrochloride]: the IC50 turned out to be 189 nM in experiment [1]; 4.84 µM in experiment [2]; 5.46 µM in experiment [3]; 53 nM in experiment [4]; 24 nM in experiment [5].

Turning to `C/C=C/C(=O)N1CCC(Nc2nc(N[C@H]3CC[C@H](N)CC3)nc3c2ncn3C2CCCC2)CC1` [compound 35, trans (E)-1-{4-[2-(4-Amino-cyclohexylamino)-9-cyclopentyl-9H-purin-6-ylamino]-piperidin-1-yl}-but-2-en-1-one dihydrochloride], the IC50 in experiment [1] stood at 766 nM; in experiment [2] it was 0.98 µM; in experiment [3], 1.38 µM; in experiment [4], 55 nM; in experiment [5] it was 48 nM.

As for `N[C@H]1CC[C@H](Nc2nc(NC3CCN(C(=O)CCC4CCCC4)CC3)c3ncn(C4CCCC4)c3n2)CC1` [compound 36, trans-1-{4-[2-(4-Amino-cyclohexylamino)-9-cyclopentyl-9H-purin-6-ylamino]-piperidin-1-yl}-3-cyclopentyl-propan-1-one dihydrochloride], the IC50 in experiment [1] is 697 nM; in experiment [2], 0.39 µM; in experiment [3] it was 0.39 µM; in experiment [4], 79 nM; in experiment [5] it was 45 nM.

Regarding `COc1cccc(CC(=O)N2CCC(Nc3nc(N[C@H]4CC[C@H](N)CC4)nc4c3ncn4C3CCCC3)CC2)c1` [compound 38, trans-1-{4-[2-(4-Amino-cyclohexylamino)-9-cyclopentyl-9H-purin-6-ylamino]-piperidin-1-yl}-2-(3-methoxy-phenyl)-ethanone dihydrochloride], the IC50 in experiment [1] stood at 703 nM; in experiment [2], 1.83 µM; in experiment [3], 1.28 µM; in experiment [4] it was 66 nM; in experiment [5], 27 nM.

Consider `N[C@H]1CC[C@H](Nc2nc(NC3CCN(C(=O)C4CCCC4)CC3)c3ncn(C4CCCC4)c3n2)CC1` [compound 39, trans-1-{4-[2-(4-Amino-cyclohexylamino)-9-cyclopentyl-9H-purin-6-ylamino]-piperidin-1-yl}-1-cyclopentyl-methanone], for which the IC50 in experiment [1] was found to be 664 nM; in experiment [2], 0.61 µM; in experiment [3] it was 0.51 µM; in experiment [4] it was 51 nM; in experiment [5], 66 nM.
